In experiment [1] the test system is p35 co-immunoprecipitated with PAK-1. Nature of the experiment: Co-immunoprecipitation of PAK-1 and p35 from hippocampal lysates. In kind it is in vivo, mice. The note with it: Rac-1 inhibitor icv; 0.5 h after E3. The procedure: Membrane and cytosolic fractions were prepared form the hippocampus of mice 0.5 h after exposure to E1, E3 or from naïve animals and analyzed for the levels of the Cdk5 substrate PAK-1 by immunoblotting. […] In the cytosolic fraction pPAK-1T423 levels decreased after E1 when compared to naïve mice but increased back to baseline levels after E3. c. Hippocampal cytosolic and membrane fractions were prepared on E3 0.5 h after mice were injected (icv) with either vehicle or Rac-1 inhibitor. […] The same lysates as described under (c) were used to immunoprecipitate PAK-1. An HA antibody served a control for unspecific binding of proteins to the proteinA agarose beads. The precipitates were immunoblotted with antibodies against PAK-1 and p35. […] Error bars indicate S.E.M.
(§1) Next, we set out experiments to determine if the regulation of PAK-1 activity during extinction depended on the activities of Rac-1 and Cdk5/p35. To this end, lysates prepared from mice that were injected with a Rac-1 inhibitor or vehicle (as described under FIG. 3c) were analyzed by immunoblot. […] Consistently, PAK-1 levels increased in the cytosol of mice treated with Rac-1 inhibitor.

Experiment [2] has as its system Mice (Balb/c). Nature of the experiment: Extinction of contextual freezing behavior after contextual fear conditioning. It is filed as in vivo. As for the experimental part:
Animals: Mice (Balb/c, 12 weeks old) were housed under standard conditions with access to food and water ad libitum. All mice were purchased from Taconic (Germantown, N.Y.). Behavior testing was performed in a way that the mice were either housed in a separated compartment but within the testing room or different rooms were used for housing and testing. In the latter case the mice were brought to the testing room before the procedure. Although it appears that the dynamics of extinction behavior are somewhat variable depending on the employed behavior facility, the trends remain the same in different experiments. All experiments were approved by the corresponding Animal Use and Care Committee.
(§2) Extinction of contextual freezing behavior: Extinction and reminder shock procedures were performed as described before^6. In brief, mice were exposed to contextual fear conditioning (3 min context followed by at mild electric foot shock, 2 s, 0.7 mA). In some experiments a tone (30 s, 10 kHz, 75 dB SPL) was presented for 30 s before the shock. Extinction was performed on consecutive days. An extinction trial consisted of a 3 min re-exposure to the conditioning context.
Surgery/injection: Microcannula were purchased custom made from PlasticOne. The gauge of the guide and injection cannulae was 26 and 28, respectively. To insert cannulae into the dorsal hippocampus the coordinates AP −1.5 mm, lateral 1 mm, depth 2 mm were used as described before^18. To insert cannulae icy the coordinates AP +0.5 mm, lateral 1 mm, depth 2 mm were used. Butyrolactone I and roscovitine were dissolved and injected as described before^18. Rac-1 inhibitor was dissolved in aCSF and delivered bilaterally (0.5 μl/side) over a 1 min period. The correct localization of the cannulae was verified at the end of an experiment by methyleneblue injection. The cis-tronic Herpes Virus expressing GFP and dnPAK-1 or GFP alone was injected into the hippocampus bilaterally (0.5 μl/side) over a 2 min period. DnPAK-1 consisted of the DNA encoding amino acid 83-149 of PAK-1.
To test for a role of Cdk5 activity during extinction of learned fear, mice were implanted with microcannulae into the dorsal hippocampus (i.h.) and trained in the contextual fear conditioning paradigm. Fear conditioning consisted of a 3 min context exposure followed by a single electric foot shock ([…], constant current, 2 s). Subsequently, all mice were subjected to a daily extinction trial (E) on 6 consecutive days (E1-E6). Each extinction trial consisted of a 3 min re-exposure to the conditioned context without presenting the foot-shock again.

For the next experiment, the system named is p35/Cdk5. Nature of the experiment: Immunoblot of p35/Cdk5 in hippocampal membrane and cytosolic fractions. It is filed as in vivo, mice. The note with it: icv 10 μg/μl after E1-E3, fractions 0.5 h after E3. The procedure: (§3) Immunoblot analysis: Immunoblot analysis was performed as described before^19. The antibody detecting pPAK-1Thr212 was used in a 1:250 dilution.
(§4) Anti-PAK-1 was from Santa Cruz (Santa Cruz, Calif.). All other antibodies were used in a 1:1000 dilution. pPAK-1Thr423 (Cell Signaling, Danvers, Mass.) synaptophysin (Sigma, St. Louis, Mo.), GAPDH and Rac-1 were from Upstate (Lake Placid, N.Y.), Cdk5 (J3) and p35 (C-19) were from Santa Cruz.
To this end, microcannuale were implanted into the lateral ventricles of mice that were subsequently trained by contextual fear conditioning and exposed to our extinction paradigm. Immediately after E1-E3 mice were injected with a Rac-1 inhibitor^35 (NSC23760; 10 μg/μl) or vehicle. Hippocampal membrane and cytosolic fractions were prepared 0.5 h after E3 and analyzed by immunoblot.

Another experiment relates to PAK-1. Briefly: Immunoblot of PAK-1, PAK-1T212 and PAK-1T423 in hippocampal membrane and cytosolic fractions. It is filed as in vivo, mice. As for the experimental part: as §3, §4
First, we measured PAK-1 phosphorylation at threonine 212 during extinction because this site is phosphorylated by p35/Cdk5^33. […] We also analyzed the activity of PAK-1 using a phospho-T423 antibody against PAK-1^37 in hippocampal lysates prepared from naïve mice and from mice 0.5 h after E1 or E3 by immunoblotting. We detected a significant increase in membrane associated PAK-1Thr423 levels after E3, when compared to E1 (FIG. 4b).
as §1
To investigate the impact of Cdk5/p35 activity on PAK-1 function during extinction, mice were implanted with microcannulae into the lateral ventricles and injected with 50 ng butyrolactone I immediately after E1. Because a single injection of butyrolactone I after E1 was sufficient to facilitate extinction (see FIG. 1d), hippocampal lysates were prepared 0.5 h after E1 and analyzed by immunoblotting using PAK-1 antibodies (FIG. 5a). […] In contrast, PAK-1T423 levels increased in lysates obtained from butyrolactone I injected mice (FIG. 5 b, c).
For orientation: A western blot detects proteins with antibodies after separation by electrophoresis.

Experiment [3] deals with MAP kinase signaling pathway. Briefly: MAP kinase signaling pathway in hippocampus after injection. It is filed as in vivo, mice. The note with it: 50 ng into hippocampus. As for the experimental part:
(§5) In agreement with previous data the recovery of the fear response is rarely complete and may indicate that unlearning and new learning may coexist during extinction^29 30. […] In contrast, when butyrolactone I (50 ng) was administered 3 h after E1, freezing behavior was indistinguishable between butyrolactone I- and vehicle-injected mice (FIG. 1f). We estimated that the employed concentrations of butryrolactone I and roscovitine permit a specific inhibition of Cdk5. However high levels of those drugs may also affect Erk-1/2 kinases^31. […] Moreover, freezing behavior is not generally affected.

A further experiment concerns the target T1, hippocampal Cdk5 (Mus musculus, UniProt P49615).
T1 construct: from tissue; host or cells: hippocampus of Balb/c mice
Briefly: Hippocampal Cdk5 activity measured by histone H1 phosphorylation. It is filed as in vivo, mice. The procedure: as §5

In experiment [4] the test system is Mice (Balb/c). Nature of the experiment: Extinction of amygdala-dependent cued fear. In kind it is in vivo. The note with it: intrahippocampal injection. The procedure: as §2, §5
Experiment [5] deals with Rac1 interaction with Rac1-specific GEFs TrioN, GEF-H1 and Tiam1. The note with it: Gao et al (2001) J. Biol. Chem. 276 47530; cited from earlier work.
[6] abbreviates: Rac-1 inhibitor icv, 0.5 h after E3, cytosolic fraction.
Setting [7] is: Rac-1 inhibitor icv, 0.5 h after E3, membrane fraction.
Where [8] appears, read: 50 ng immediately after E1, fractions 0.5 h later.
The mark [9] stands for this setting: 50 ng immediately after E1, fractions 0.5 h later, listed as Butyrolactone I.

We go through 4 compounds from US20130197069A1, “METHODS FOR TREATING STRESS INDUCED EMOTIONAL DISORDERS” (MASSACHUSETTS INSTITUTE OF TECHNOLOGY, priority 2007, published 2013).

“Also recorded” adds a separate entry of the source. Where no end group is shown, it is not given here.

T1 sequence (P49615 whole entry): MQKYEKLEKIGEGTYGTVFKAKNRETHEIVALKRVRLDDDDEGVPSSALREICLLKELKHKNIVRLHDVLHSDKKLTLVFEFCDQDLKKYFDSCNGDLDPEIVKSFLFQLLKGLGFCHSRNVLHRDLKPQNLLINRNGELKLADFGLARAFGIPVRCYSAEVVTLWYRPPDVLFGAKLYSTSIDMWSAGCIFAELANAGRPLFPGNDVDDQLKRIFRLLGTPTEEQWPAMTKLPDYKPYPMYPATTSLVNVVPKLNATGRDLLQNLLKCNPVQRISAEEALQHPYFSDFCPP
T1 sequence (P61809 2-307 partner limits assumed): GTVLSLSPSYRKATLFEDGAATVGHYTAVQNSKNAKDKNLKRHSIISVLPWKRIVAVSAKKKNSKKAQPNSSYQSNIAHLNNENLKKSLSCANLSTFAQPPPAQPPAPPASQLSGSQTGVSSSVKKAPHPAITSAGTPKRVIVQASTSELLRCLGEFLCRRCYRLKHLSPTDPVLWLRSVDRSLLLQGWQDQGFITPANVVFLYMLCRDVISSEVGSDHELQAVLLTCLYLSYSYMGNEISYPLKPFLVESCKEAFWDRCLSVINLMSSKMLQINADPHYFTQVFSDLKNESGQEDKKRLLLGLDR

On to `CCN(CC)CCCC(C)Nc1nc(C)cc(Nc2ccc3nc(C)cc(N)c3c2)n1` (stereo not drawn) [NSC23760], for which the “amount of p35 co-immunoprecipitated with PAK-1 vs. vehicle” value in experiment [1] was “reduced amount of p35 co-immunoprecipitated with PAK-1; also recorded: Much less p35 co-immunoprecipitated with PAK-1”. The “freezing behavior vs. vehicle group” value with Mice (Balb/c) [2] (icv 10 μg/μl immediately after E1-E3) is given as “significant reduction of freezing behavior; also recorded: reduced freezing”. In addition, the “membrane associated p35 and Cdk5 levels / distribution vs. vehicle” value with p35/Cdk5 is “dramatic redistribution of membrane associated p35 and Cdk5 to the cytosol”. For the same compound, in the experiment with p35/Cdk5 (listed as Rac-1 inhibitor), the “membrane associated p35 and Cdk5 levels / distribution vs. vehicle” value was “significant reduction of membrane-associated Cdk5/p35”. For the same compound, in the experiment with PAK-1 (setting [6]), the “PAK-1 levels in the cytosol vs. vehicle” value was “increased” and the “cytosolic PAK-1T212 levels vs. vehicle” value is given as “decreased”. Further, in the experiment on PAK-1 (setting [7]), the “membrane associated PAK-1T212 levels vs. vehicle” value is listed as “dramatic reduction; also recorded: significant reduction” and the “membrane associated PAK-1 levels vs. vehicle” value is recorded as “dramatic reduction; also recorded: significant reduction”.
As for `COC(=O)[C@@]1(Cc2ccc(O)c(CC=C(C)C)c2)OC(=O)C(O)=C1c1ccc(O)cc1` [butyrolactone I], the “freezing behavior / extinction vs. vehicle group” value in the experiment with Mice (Balb/c) [2] (12.5 ng i.h. after E1-E3, listed as butyrolactone 1) is “no significant effect on the reduction of freezing behavior”; in the experiment on Mice (Balb/c) [2] (25 ng i.h. after E1-E3), “Extinction was similar in vehicle and butyrolactone I injected mice”; with Mice (Balb/c) [2] (25 ng i.h. after E1-E3, listed as butyrolactone 1), “no significant effect on the reduction of freezing behavior”; in the experiment with Mice (Balb/c) [2] (50 ng i.h. 3 h after E1), “indistinguishable”; in the experiment with Mice (Balb/c) [2] (50 ng i.h. 3 h after E1, listed as butyrolacone I), “no significant effect on extinction”. The “freezing behavior vs. vehicle group” value is “reduced freezing behavior on E2 and E3” in the experiment on Mice (Balb/c) [2] (50 ng i.h. immediately after E1-E3); “significantly reduced freezing behavior on E2 and E3” in the experiment with Mice (Balb/c) [2] (50 ng i.h. immediately after E1-E3, listed as butyrolactone 1); “significant reduction of freezing behavior on E2” in the experiment on Mice (Balb/c) [2] (50 ng injected 1 h after E1); “significantly diminished freezing behavior on the subsequent extinction trials” in the experiment with Mice (Balb/c) [2] (single injection i.h. 50 ng immediately after E1); “significant reduction of freezing behavior on E2” with Mice (Balb/c) [2] (single injection i.h. 50 ng immediately after E1, listed as butyrolactone). In addition, the “reinstatement of freezing behavior by reminder shock procedure” value in the experiment with Mice (Balb/c) [2] (after 50 ng i.h. following E1-E3) was “able to reinstate freezing behavior”. Besides, in the experiment with Mice (Balb/c) [2] (intrahippocampal injection 15 min before extinction trial 1 or 2), the “freezing behavior during the extinction trial” value is reported as “did not affect freezing behavior during the extinction trial”. For the same compound, the “effect on MAP kinase signaling pathway” value in experiment [3] is given as “did not affect the MAP kinase signaling pathway”. For the same compound, the “hippocampal Cdk5 activity (histone H1 phosphorylation)” value on hippocampal Cdk5 (12.5 ng i.h.) and at hippocampal Cdk5 (25 ng i.h.) was “did not reduce hippocampal Cdk5 activity” in each case. Moreover, the “extinction of amygdala-dependent cued fear” value in the experiment on Mice (Balb/c) [4] is listed as “did not affect extinction of amygdala-dependent cued fear”. Besides, the “PAK-1T212 levels in the cytosolic fraction vs. vehicle” value in the experiment with PAK-1 (setting [8]) is “significantly reduced”; in the experiment with PAK-1 (setting [9]) it was “decreased”. In addition, the “PAK-1T212 levels in the membrane fraction vs. vehicle” value is recorded as “reduced” with PAK-1 (setting [8]) and “decreased” in the experiment with PAK-1 (setting [9]). Also, the “distribution of total PAK-1 between membrane and cytosol vs. vehicle” value in the experiment on PAK-1 (setting [8]) is “re-distribution of total PAK-1 from the membrane to the cytosol”; with PAK-1 (50 ng immediately after E1, fractions 0.5 h later, listed as butyrolactone), “significant re-distribution of PAK-1 from the membrane to the cytosol”. In the experiment on PAK-1 (50 ng immediately after E1, fractions 0.5 h later, membrane fraction (FIG. 5c)), the “PAK-1T423 levels vs. vehicle” value is listed as “significantly increased”.
Regarding `CC[C@H](CO)Nc1nc(NCc2ccccc2)c2ncn(C(C)C)c2n1` [roscovitine], in the experiment with Mice (Balb/c) [2] (roscovitine i.h. 50 ng into dorsal hippocampus immediately after E1-E3), the “freezing behavior vs. vehicle group” value is recorded as “reduced freezing behavior”.
Consider MVDGKPVNLGLWDTAG [Rac1 Inhibitor W56], for which the “inhibition of Rac1 interaction with Rac1-specific GEFs” value in experiment [5] is “selectively inhibits”.
